Assay results from US7348330B2, “1-azabicyclo [2,2,2] octan-3-one derivatives” (Aprea AB, priority 2000, dated 2008).

Columns and labels:
Saos-2-His-273 cells = assay: WST-1 growth suppression assay; assay type: cell-based, human
Experimental: (§1) Saos-2-His-273 cell line stably transfected with construct allowing expression of mutant His-273 p53 in a tetracycline-dependent manner was used for screening (Selivanova et al., 1997). p53 expression was inhibited by incubation of cells with doxycycline (5 μg/ml). Cells were grown in 96-well plates at a density of 3000 cells per well with or without doxycycline and treated with 25 μM of the compounds from the NCI library of low molecular weight (LMW) compounds. After 48 hours of incubation the proliferative cell reagent WST-1 (Roche) was added to the cells. The degree of WST-1 reduction, which reflects cell viability, was measured by microplate reader at λ490 nm according to the manufacturer (Roche).
as §1, with “1997).” for “1997). p53 expression was inhibited by incubation of cells with doxycycline (5 μg/ml).”, “doxycycline. The treatment was done at a concentration of” for “doxycycline and treated with”, “each chemical” for “the compounds”, “is proportional to the” for “reflects”, “by a” for “by”
Saos-2-His-273 cells grown in the presence or absence of doxycycline and parental Saos-2 cells were treated with the structural analogs and analyzed as described above. The effect of structural analogs on cell growth was tested using different concentrations of the compounds, ranging from 2.5 to 25 μM. Compounds MIRA-2, MIRA-3 and PRIMA-2, PRIMA-3 were identified that were able to suppress the growth of Saos-2-His-273 cells expressing mutant p53 (tet−). […] In addition, compounds MIRA-2 and MIRA-3 suppressed the growth of cells in a mutant p53-dependent manner at 10 μM concentration, in contrast to 25 μM of compound MIRA-1 required for the selective effect.

[1] = tested on: KRC/Y renal carcinoma cells (Phe-176 mutant p53); assay: FACS analysis of apoptosis; assay type: cell-based, human
Experimental: The percentage of apoptotic cells was detected by FACS analysis as it was described in FIG. 3A.
Cells were placed on 12-well plate at a density of 30000/cm^2 and treated with compounds. After 48 h incubation cells were harvested by trypsinization, fixed with 70% ethanol, treated with RNase A (0.25 mg/ml) and stained with propidium iodide (0.02 mg/ml). Samples were analyzed on a Becton Dickinson FACScan. Data were analyzed by the CellQuest software, version 3.2.1.
Thus, it appears that the defect caused by substitution of the Cys residue at position 176 is irreversible. The substitution of this Cys residue abolishes the binding of a Zn atom which holds together the DNA-binding loops of the p53 core domain. Therefore, the unfolding of this mutant p53 protein is probably too extensive to be restored.

[2] = tested on: recombinant wild type and mutant p53 proteins; assay: ELISA of p53 conformation upon heating 30 min at 37° C.; assay type: biochemical, human; conditions: for appearance of PAb240 epitope (unfolding) upon heating: 37° C.; for PAb1620 epitope after heating: 30 min at 37° C.; for DO-1 non-conformational epitope: incubation with compounds
Experimental: Absorbance of the control sample incubated on ice was taken as 100%.
(§2) 20 ng of GST-wtp53, GST-mtp53-175 and GST-mtp53-248 were heated at 37° C. for 30 min or kept on ice. The procedure was performed with or without tested compounds. The ELISA analyses were done as described by (Foster et al., 1999). Briefly, after the treatment, samples were diluted with coating buffer (150 mM KCL, 25 mM HEPES) supplemented with 10 mM DTT. The whole mixture was apply to ELISA plates (MaxiSorp, Nunc) and incubated at +4° C. for 35 min. The wells were washed with coating buffer. The wells were blocked by 5% skim milk in PBS by incubating at +4° C. for 1 h. […] Samples were incubated at +4° C. for 30 min. Wells were rinsed twice with PBS. After that, a secondary antibody (anti-mouse, conjugated with horse radish peroxidase) was incubated with samples at +4° C. for 30 min. Then plates were washed 5 times with PBS and a peroxidase substrate was added. An absorbance at λ405 nm was monitored by ELISA reader.

[3] = molecular target: T1, GST-wild type p53 protein (Homo sapiens, UniProt P04637); assay: ELISA with conformation-specific antibodies, recombinant protein; assay type: biochemical
T1 construct: made in house
T1 sequence (P04637 whole entry): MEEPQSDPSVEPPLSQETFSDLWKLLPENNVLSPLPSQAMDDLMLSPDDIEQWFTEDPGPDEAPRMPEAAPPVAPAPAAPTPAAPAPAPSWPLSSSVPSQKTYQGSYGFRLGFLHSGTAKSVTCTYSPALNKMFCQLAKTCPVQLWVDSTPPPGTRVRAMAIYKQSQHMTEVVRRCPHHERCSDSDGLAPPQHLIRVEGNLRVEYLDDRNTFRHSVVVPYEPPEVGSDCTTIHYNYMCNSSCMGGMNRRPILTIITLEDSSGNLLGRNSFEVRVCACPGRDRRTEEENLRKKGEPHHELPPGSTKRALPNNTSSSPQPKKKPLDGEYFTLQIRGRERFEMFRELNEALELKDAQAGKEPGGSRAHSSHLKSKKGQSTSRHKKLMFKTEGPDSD
Experimental: as §2

[4] = molecular target: T1, GST-wild type p53 protein; assay: Band shift assay, heat-inactivated protein; assay type: biochemical; conditions: protein inactivated at 37° C. for 30 min
Experimental: Lane 3, inactivation of DNA binding of wtp53 by heating.
(§3) The GST-p53 proteins were prepared as described (Selivanova et al., 1997). Band shift assays were performed in binding buffer containing 100 mM HEPES pH 7.5, 50 mM KCl , 1 mg/ml BSA, 0.1% Triton X-100, 2 mM MgCl2 and 1 mM DTT essentially as in (Selivanova et al., 1996).
Substitution of arginin at position 175 causes a gross unfolding of the DNA binding core domain of p53. Therefore, the restoration of the DNA binding of this mutant was regarded as an exceptionally difficult task.

14 mutant p53 proteins = assay: Band shift assays, extracts of tumor cell lines; assay type: biochemical, human; conditions: of 14 mutants tested
Experimental: as §3
The compound MIRA-1 restored the DNA binding of 3 out of 14 mutant p53 proteins (Table III).

SKOV-His-175 cells = assay: WST-1 proliferation assay; assay type: cell-based, human; conditions: for increase in cell survival by cycloheximide pretreatment: cycloheximide before addition of compound
Experimental: FIG. 13B, PRIMA-3 reactivated the hot spot p53 mutant Trp-248 in H1299 lung adenocarcinoma cells. FIG. 13C, MIRA-2 and MIRA-3 reactivated His-175 mutant of p53 in SKOV cells. […] FIG. 13G, PRIMA-2 reactivated mutant p53 His-273 in SKOV cells.
as §1
The cycloheximide treatment renders SKOV-His-175 resistant to MIRA-1 as well, resulting in about 4 fold increase in cell survival. […] In addition, SKOV-His-175 cells were at least 3 fold more sensitive to treatment with MIRA-1 in comparison with SKOV-His-175-22/23 cells.
Growth suppression by analogs in the presence or absence of p53 expression was measured as described in FIG. 1. […] Analogs of MIRA-1 induced mutant p53-dependent growth suppression in SKOV-His-175 cells (FIG. 13C).

[5] = tested on: SW480 colon carcinoma cells carrying endogenous His-273 mutant p53; assay: Western blot of p53 target genes p21 and MDM2; assay type: cell-based; conditions: Western blotting
Excerpt: In order to assess the effect of the analogs on the transcriptional transactivation function of mutant p53, we tested the expression of p53 target genes after treatment with analogs of colon carcinoma cells SW480 expressing endogenous His-273 mutant p53.

| Compound | concentration at which growth of mutant p53 containing cells is selectively suppressed (Saos-2-His-273 cells; tet− vs tet+ and parental Saos-2, 48 hours, 2.5 to 25 μM tested) [µM] | induction of apoptosis compared to Saos-2-His-273 cells ([1]; 50 μM) | appearance of PAb240 epitope (unfolding) upon heating [2] | PAb1620 epitope after heating [2] | DO-1 non-conformational epitope [2] | increase in the PAb1620+ fraction [3] | reduction in PAb240+ fraction [3] | restoration of specific DNA binding [4] | mutant p53 proteins whose specific DNA binding was restored (14 mutant p53 proteins) | sensitivity of SKOV-His-175 cells in comparison with SKOV-His-175-22/23 cells (SKOV-His-175 cells) | increase in cell survival by cycloheximide pretreatment (SKOV-His-175 cells) | induction of MDM2 and p21 [5] | growth of cells expressing mutant p53 (growth curves) (Saos-2-His-273 cells; mutant p53 expressed) | growth of cells in the absence of mutant p53 expression (Saos-2-His-273 cells; no mutant p53 expression) | induction of apoptosis compared to Saos-2-His-273 cells ([1]; 75 μM) | DO-1+ fraction [3] |
| --- | --- | --- | --- | --- | --- | --- | --- | --- | --- | --- | --- | --- | --- | --- | --- | --- |
| CCC(=O)OCN1C(=O)C=CC1=O [MIRA-1] | 25 | much less prominent | able to prevent unfolding | preserve the conformation-dependent epitope | not affected | About 40% | ~20% | able to restore | 3 out of 14 | at least 3 fold | about 4 fold | induced MDM2 and p21 | – | – | – | – |
| O=C1C2CCN(CC2)C1(CO)CO [PRIMA-1, 2,2-bis(hydroxymethyl)-1-azabicyclo[2,2,2]octan-3-one] | – | – | able to prevent unfolding | preserve the conformation-dependent epitope | not affected | 40% | corresponding decrease | able to restore | 13 out of 14 | – | 4 fold | induced MDM2 and p21 | completely inhibited growth | minor reduction in growth rate | much less prominent | remained unchanged |
